Test results published in patent publication US11197933B2, “Polysubunit opioid prodrugs resistant to overdose and abuse” (Elysium Therapeutics, Inc., priority 2017, dated 2021).

How the values were obtained:
trypsin [1] = molecular target: T1, trypsin (Bos taurus, UniProt P00760); assay: Inhibition of trypsin-catalyzed hydrolysis of BANA (percent BANA remaining vs. time); type: biochemical; conditions: pH 7.4, 37° C.; for Ability to inhibit trypsin (result in words): increasing concentrations, BANA substrate
T1 construct: gene PRSS1
T1 sequence (P00760 24-246): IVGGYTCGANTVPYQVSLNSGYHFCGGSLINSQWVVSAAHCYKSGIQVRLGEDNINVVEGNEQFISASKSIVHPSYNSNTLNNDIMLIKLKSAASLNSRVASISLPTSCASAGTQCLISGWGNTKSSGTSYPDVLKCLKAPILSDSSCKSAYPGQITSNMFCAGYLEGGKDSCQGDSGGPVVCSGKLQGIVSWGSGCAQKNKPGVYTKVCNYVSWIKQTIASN
Experimental: This example describes in vitro experiments with a compound of the disclosure to provide a mechanism of overdose protection.
The effect of increasing concentrations of compounds II-D-11, II-D-23, II-D-71c and II-D-71b on the rate and extent of the trypsin-catalyzed hydrolysis of a commercially available trypsin substrate Nα-Benzoyl-L-arginine 4-nitroanilide hydrochloride (BANA) was evaluated in the presence of trypsin (2,000 BAEE activity) in a pH 7.4 phosphate buffer at 37° C. in vitro. Both buffer solution alone (i.e. no trypsin) and trypsin containing buffer solution (i.e. no test compounds) controls were run contemporaneously.

[2] = Hydrocodone and naltrexone release from II-D-71c-NTX in 0.5M aqueous NaOH at 60° C. (tampering); type: physicochemical; conditions: for Percent HC Released / Percent NTX Released: 60° C. incubation in 0.5M aqueous NaOH
Experimental: H-D-71c-NTX was incubated in a strongly basic solution of 0.5M aqueous sodium hydroxide at 60° C. for 300 minutes. The solution was analyzed for the presence of both hydrocodone and naltrexone at specified time points using LC/MS analysis. […] The data from this study is presented graphically in FIG. 2.

trypsin [3] = molecular target: T1, trypsin; assay: Trypsin inhibitory potency (key differentiating attributes, Table 5); type: biochemical
Source text: (§1) As mentioned previously, a wide range of targeted oral pharmacokinetic profiles can be achieved by administering pharmaceutical compositions containing specific combinations of different polysubunit molecules to subjects. For example, the different polysubunit molecules contained in the composition may differ with regard to (i) the specific opioid agonists delivered, (ii) the rates at which the opioid agonist is delivered in vivo (i.e. to modify the oral pharmacokinetic profile of the delivered opioid), and (iii) the combined inhibitory potency of the GI enzyme inhibiting subunits [i.e. to modify the overdose protection profile and/or the prescribed dose strengths of the delivered opioid agonist(s)]. Table 5 below provides non-limiting examples of compounds of the invention with their key differentiating attributes. Table 6 discusses scenarios and rationales for using the compounds presented in Table 5 in combination with each other, in useful pharmaceutical formulations of the invention.

[4] = Rate of release of opioid agonist (key differentiating attributes, Table 5); conditions: for Rate of Release of Opioid Against: in words (Fast/Slow); for half-life: read-out: Rate of Release of Opioid Against: T1/2
Source text: as §1

For `COc1ccc2c3c1OC1C(OC(=O)N4CCC(C(=O)NCCCCC(NC(C)=O)C(=O)NCCOc5ccc(C(=O)Oc6ccc7cc(C(=N)N)ccc7c6)cc5)CC4CNC(=O)C(CCCNC(=N)N)NC(=O)CNC(C)=O)=CCC4C(C2)N(C)CCC314` [II-D-11], the “Percent BANA remaining” value (trypsin [1]; 1 uM compound, 2 minutes) was 100%, the “Percent BANA remaining” value (trypsin [1]; 1 uM compound, 13 minutes) was 39% and the “Percent BANA remaining” value (trypsin [1]; 1 uM compound, 24 minutes) was 0%. The “Percent BANA remaining” value (trypsin [1]; 1 uM compound, 80 minutes) was 0%, the “Percent BANA remaining” value (trypsin [1]; 1 uM compound, 102 minutes) was 0% and the “Percent BANA remaining” value (trypsin [1]; 1 uM compound, 119 minutes) was 0%. For the same molecule, the “Percent BANA remaining” value (trypsin [1]; 1 uM compound, 234 minutes) was 0%, the “Percent BANA remaining” value (trypsin [1]; 10 uM compound, 2 minutes) was 100% and the “Percent BANA remaining” value (trypsin [1]; 10 uM compound, 13 minutes) was 98%. For the same molecule, the “Percent BANA remaining” value (trypsin [1]; 10 uM compound, 24 minutes) was 96%, the “Percent BANA remaining” value (trypsin [1]; 10 uM compound, 80 minutes) was 94% and the “Percent BANA remaining” value (trypsin [1]; 10 uM compound, 102 minutes) was 93%. For the same molecule, the “Percent BANA remaining” value (trypsin [1]; 10 uM compound, 119 minutes) was 94%, the “Percent BANA remaining” value (trypsin [1]; 10 uM compound, 234 minutes) was 87% and the “Percent BANA remaining” value (trypsin [1]; 100 uM compound, 2 minutes) was 100%. For the same molecule, the “Percent BANA remaining” value (trypsin [1]; 100 uM compound, 13 minutes) was 98%, the “Percent BANA remaining” value (trypsin [1]; 100 uM compound, 24 minutes) was 100% and the “Percent BANA remaining” value (trypsin [1]; 100 uM compound, 80 minutes) was 99%. The “Percent BANA remaining” value (trypsin [1]; 100 uM compound, 102 minutes) was 99%, the “Percent BANA remaining” value (trypsin [1]; 100 uM compound, 119 minutes) was 99% and the “Percent BANA remaining” value (trypsin [1]; 100 uM compound, 234 minutes) was 99%. The “Percent BANA remaining” value (trypsin [1]; 1 mM compound, 2 minutes) was 100%, the “Percent BANA remaining” value (trypsin [1]; 1 mM compound, 13 minutes) was 100% and the “Percent BANA remaining” value (trypsin [1]; 1 mM compound, 24 minutes) was 99%. For the same molecule, the “Percent BANA remaining” value (trypsin [1]; 1 mM compound, 80 minutes) was 100%, the “Percent BANA remaining” value (trypsin [1]; 1 mM compound, 102 minutes) was 100% and the “Percent BANA remaining” value (trypsin [1]; 1 mM compound, 119 minutes) was 100%. The “Percent BANA remaining” value (trypsin [1]; 1 mM compound, 234 minutes) was 100% and the “Ability to inhibit trypsin (result in words)” value (trypsin [1]) was “progressively inhibit trypsin in a concentration dependent manner”.
For `COc1ccc2c3c1OC1C(OC(=O)N4CCC(C(=O)NCCCCC(NC(=O)OCc5ccccc5)C(=O)NCCOc5ccc(C(=O)Oc6ccc7cc(C(=N)N)ccc7c6)cc5)CC4CNC(=O)C(CCCNC(=N)N)NC(=O)CNC(C)=O)=CCC4C(C2)N(C)CCC314` [II-D-23], the “Percent BANA remaining” value (trypsin [1]; 1 uM compound, 2 minutes) was 100%, the “Percent BANA remaining” value (trypsin [1]; 1 uM compound, 14 minutes) was 20% and the “Percent BANA remaining” value (trypsin [1]; 1 uM compound, 24 minutes) was 11%. The “Percent BANA remaining” value (trypsin [1]; 1 uM compound, 32 minutes) was 0%, the “Percent BANA remaining” value (trypsin [1]; 1 uM compound, 70 minutes) was 0% and the “Percent BANA remaining” value (trypsin [1]; 1 uM compound, 100 minutes) was 0%. For the same molecule, the “Percent BANA remaining” value (trypsin [1]; 1 uM compound, 145 minutes) was 0%, the “Percent BANA remaining” value (trypsin [1]; 1 uM compound, 156 minutes) was 0% and the “Percent BANA remaining” value (trypsin [1]; 1 uM compound, 247 minutes) was 0%. For the same molecule, the “Percent BANA remaining” value (trypsin [1]; 10 uM compound, 2 minutes) was 100%, the “Percent BANA remaining” value (trypsin [1]; 10 uM compound, 14 minutes) was 98% and the “Percent BANA remaining” value (trypsin [1]; 10 uM compound, 24 minutes) was 96%. The “Percent BANA remaining” value (trypsin [1]; 10 uM compound, 32 minutes) was 98%, the “Percent BANA remaining” value (trypsin [1]; 10 uM compound, 70 minutes) was 97% and the “Percent BANA remaining” value (trypsin [1]; 10 uM compound, 100 minutes) was 95%. For the same molecule, the “Percent BANA remaining” value (trypsin [1]; 10 uM compound, 145 minutes) was 96%, the “Percent BANA remaining” value (trypsin [1]; 10 uM compound, 156 minutes) was 96% and the “Percent BANA remaining” value (trypsin [1]; 10 uM compound, 247 minutes) was 93%. The “Percent BANA remaining” value (trypsin [1]; 100 uM compound, 2 minutes) was 100%, the “Percent BANA remaining” value (trypsin [1]; 100 uM compound, 14 minutes) was 99% and the “Percent BANA remaining” value (trypsin [1]; 100 uM compound, 24 minutes) was 100%. For the same molecule, the “Percent BANA remaining” value (trypsin [1]; 100 uM compound, 32 minutes) was 100%, the “Percent BANA remaining” value (trypsin [1]; 100 uM compound, 70 minutes) was 100% and the “Percent BANA remaining” value (trypsin [1]; 100 uM compound, 100 minutes) was 100%. For the same molecule, the “Percent BANA remaining” value (trypsin [1]; 100 uM compound, 145 minutes) was 100%, the “Percent BANA remaining” value (trypsin [1]; 100 uM compound, 156 minutes) was 100% and the “Percent BANA remaining” value (trypsin [1]; 100 uM compound, 247 minutes) was 100%. For the same molecule, the “Percent BANA remaining” value (trypsin [1]; 1 mM compound, 2 minutes) was 100%, the “Percent BANA remaining” value (trypsin [1]; 1 mM compound, 14 minutes) was 99% and the “Percent BANA remaining” value (trypsin [1]; 1 mM compound, 24 minutes) was 98%. For the same molecule, the “Percent BANA remaining” value (trypsin [1]; 1 mM compound, 32 minutes) was 99%, the “Percent BANA remaining” value (trypsin [1]; 1 mM compound, 70 minutes) was 99% and the “Percent BANA remaining” value (trypsin [1]; 1 mM compound, 100 minutes) was 98%. The “Percent BANA remaining” value (trypsin [1]; 1 mM compound, 145 minutes) was 98%, the “Percent BANA remaining” value (trypsin [1]; 1 mM compound, 156 minutes) was 97% and the “Percent BANA remaining” value (trypsin [1]; 1 mM compound, 247 minutes) was 96%. The “Ability to inhibit trypsin (result in words)” value (trypsin [1]) was “progressively inhibit trypsin in a concentration dependent manner”.
For `COc1ccc2c3c1O[C@H]1C(OC(=O)N4CCC(C(=O)NCCCC[C@H](NC(=O)CCCN(C)C(=O)Oc5ccc6c7c5O[C@H]5C(=O)CC[C@@]8(O)[C@@H](C6)N(CC6CC6)CC[C@]758)C(=O)NCCNC(=O)Cc5ccc(OC(=O)c6ccc(NC(=N)N)cc6)cc5)CC4CNC(=O)[C@@H](CCCNC(=N)N)NC(=O)CNC(C)=O)=CC[C@H]4[C@@H](C2)N(C)CC[C@]314.O=C(O)C(F)(F)F.O=C(O)C(F)(F)F.O=C(O)C(F)(F)F.O=C(O)C(F)(F)F` (stereo partly drawn) [II-D-71c-NTX], the “Release of hydrocodone and naltrexone on tampering (result in words)” value ([2]; 0.5M aqueous sodium hydroxide, 60° C., 300 minutes, LC/MS) was “release of the opioid agonist (e.g. hydrocodone) occurs concomitantly with the release of the opioid antagonist”, the “Percent HC Released” value ([2]; time 0 (minutes)) was 0% and the “Percent NTX Released” value ([2]; time 0 (minutes)) was 0%. The “Percent HC Released” value ([2]; time 5 (minutes)) was 2.52%, the “Percent NTX Released” value ([2]; time 5 (minutes)) was 1.44% and the “Percent HC Released” value ([2]; time 10 (minutes)) was 4.45%. The “Percent NTX Released” value ([2]; time 10 (minutes)) was 2.0%, the “Percent HC Released” value ([2]; time 15 (minutes)) was 6.27% and the “Percent NTX Released” value ([2]; time 15 (minutes)) was 2.95%. The “Percent HC Released” value ([2]; time 20 (minutes)) was 9.27%, the “Percent NTX Released” value ([2]; time 20 (minutes)) was 3.69% and the “Percent HC Released” value ([2]; time 30 (minutes)) was 13.99%. For the same molecule, the “Percent NTX Released” value ([2]; time 30 (minutes)) was 6.47%, the “Percent HC Released” value ([2]; time 60 (minutes)) was 25.32% and the “Percent NTX Released” value ([2]; time 60 (minutes)) was 14.41%. For the same molecule, the “Percent HC Released” value ([2]; time 120 (minutes)) was 37.9%, the “Percent NTX Released” value ([2]; time 120 (minutes)) was 37.81% and the “Percent HC Released” value ([2]; time 300 (minutes)) was 56.1%. The “Percent NTX Released” value ([2]; time 300 (minutes)) was 60.25%.
For `COc1ccc2c3c1OC1C(OC(=O)N(C)C(CNC(=O)[C@H](CCCNC(=N)N)NC(=O)CNC(C)=O)C(=O)NCCCC[C@H](NC(=O)OCc4ccccc4)C(=O)NCCOc4ccc(C(=O)Oc5cccc(NC(=N)N)c5)cc4)=CC[C@H]4[C@@H](C2)N(C)CC[C@]314` (stereo partly shown) [II-J-71b], the “Trypsin Inhibitory Potency” value (trypsin [3]) was “Low”, the “Rate of Release of Opioid Against” value [4] was “Slow” and the half-life [4] was roughly 3 h.
For `COc1ccc2c3c1OC1C(OC(=O)N(C)C(CNC(=O)[C@H](CCCNC(=N)N)NC(=O)CNC(C)=O)C(=O)NCCCC[C@H](NC(=O)OCc4ccccc4)C(=O)NCCOc4ccc(C(=O)Oc5ccc(NC(=N)N)cc5)cc4)=CC[C@H]4[C@@H](C2)N(C)CC[C@]314` (stereo partly shown) [II-J-71c], the “Trypsin Inhibitory Potency” value (trypsin [3]) was “High”, the “Rate of Release of Opioid Against” value [4] was “Slow” and the half-life [4] was roughly 3 h.
